Measurements published in PubChem BioAssay AID1902 (Broad Institute, 2009).
Activity calls are given as the source filed them.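 Rule for the calls: active = EC50 no more than a set limit of log units above the highest dose; inactive = the rest.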

These compounds were tested against S. pyogenes SKKanGAS, kanamycin survival, BacTiterGlo, 6 h (assay: SKKanGAS survival reduction under kanamycin, dose response, streptokinase promoter inhibitor project, SKKanGAS strain, luminescence, dose confirmation (AID 1902);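 note: lower survival reflects blocked streptokinase promoter driving kanamycin resistance gene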).

Row | Compound | EC50
1 | COc1ccc(C)cc1N=Nc1ccc(O)c2ncccc12 | 0.168 µM
2 | O=C1NC(=Nc2ccc(Cl)cc2)SC1Cc1cccc(Cl)c1Cl (centres undefined) | 6.95 µM
3 | CCCCCCSc1cc(-c2nc3cnccn3c2NCc2ccccc2)ccc1OC | 3.61 µM
4 | COc1ccc(Cn2c(SCc3cc(C)ccc3C)nc3cc(OC)c(OC)cc3c2=N)cc1 | 2.73 µM
5 | COc1cccc(C(=O)Nc2nc(-c3ccccc3)c(-c3ccccc3)o2)c1 | 0.881 µM
6 | COc1cc(F)ccc1CN1CCC(n2nccc2NC(=O)C2CCOC2)CC1 (centres undefined) | > 15 µM (inactive)
7 | O=C(O)c1ccccc1N/N=C/c1cc(Br)cc(Br)c1O | 7.96 µM
8 | COc1ccccc1C(=O)NNC(=S)NC(=O)c1cc(OC)c(OC)c(OC)c1 | 0.98 µM
9 | Cc1cccc(/C=C2/S/C(=N/N=C3\CC4CCC3(C)C4(C)C)NC2=O)c1 (centres undefined) | 1.19 µM
10 | CC(C)CC(=O)NC(NC(=S)Nc1sc2c(c1C#N)CCCC2)C(Cl)(Cl)Cl (centres undefined) | 1.66 µM
11 | COc1ccc(Cc2n[nH]c(=S)n2NC(=O)Nc2ccc(Cl)c(Cl)c2)cc1 | 4.08 µM
12 | Oc1cccc2ccc(/C=C/c3ccccc3Cl)nc12 | 0.248 µM
13 | COc1cc([N+](=O)[O-])cc(/C=N\NC(=O)C2COc3ccccc3O2)c1O (centres undefined) | 3.61 µM
14 | Cc1c2ccncc2c(C)c2c1[nH]c1ccccc12 | 3.02 µM
15 | Oc1c(Cl)cc(Cl)cc1/C=N/NC(=S)NC1CC2C=CC1C2 (centres undefined) | 0.177 µM
16 | CC1CCN(C(=O)N2c3ccccc3Sc3ccccc32)CC1 | 9.99 µM
17 | O=C1c2ccccc2C(=O)c2c1oc(C(F)(F)F)c2C(=O)c1ccccc1 | 1.82 µM
18 | COc1ccc(-c2cc(C3CCN(c4ncccc4[N+](=O)[O-])CC3)[nH]n2)cc1 | 5.01 µM
19 | Cc1ccc(-c2cc(C(=O)N3CCN(c4ccccc4O)CC3)c3ccccc3n2)cc1 | 8.84 µM
20 | CCCCCCCCCCC[N+](C)(C)CC/C=C1/c2ccccc2Sc2ccc(Cl)cc21 | 2.4 µM
21 | O=C(Cc1csc(NC(=O)Nc2cccc(Cl)c2)n1)NCc1ccccn1 | 6.87 µM
22 | Cc1ccc(C(=O)N2CCOCC2)cc1Cl | > 15 µM (inactive)

Row | Compound | EC50
23 | Cc1cccc2[nH]c3c(N4CC=C(c5ccc(F)cc5)CC4)ncnc3c12 | 2.14 µM
24 | Cc1cccc(N=C2NN=C(c3c(C)[nH]c4ccccc34)CS2)c1 | 3.02 µM
25 | O=C(Nc1ccccc1Cl)/C(Cl)=C(\Cl)S(=O)c1ccccc1 (centres undefined) | 1.98 µM
26 | O=C1NC(=O)/C(=C\c2ccccc2OCc2ccccc2)S1 | 10.3 µM
27 | Cc1cc(C)c(C)c(OCCCOc2cccc3cccnc23)c1 | 13.5 µM
28 | Cc1c(Cl)cnn1CC(=O)NC1C(=O)N2C(C(=O)O)=C(CSc3nnnn3C)CSC12 (centres undefined) | < 0.06 µM
29 | CCOC(=O)Nc1ccc(OCc2nnc3c4ccccc4c(C)nn23)cc1 | < 0.06 µM
30 | O=c1c2cc(-c3ccccc3)sc2nc2n1CCC2 | 7.67 µM
31 | Oc1ccc(/C=C/c2ccc3cccc(O)c3n2)cc1Br | 1.04 µM
32 | C=CCN1C(=O)/C(=C/c2ccc(OC(C)=O)c(OCC)c2[N+](=O)[O-])SC1=S | 1.62 µM
33 | Cc1ccccc1C(=O)Nc1scc(-c2ccc(Br)cc2)c1C(=O)O | 1.82 µM
34 | Cc1cc2oc(=O)cc(CN(C)Cc3ccccc3Cl)c2cc1C | 4.2 µM
35 | Cc1cc(C)c(OCC(=O)Nc2nc(-c3ccccn3)cs2)c(C)c1 | 1.4 µM
36 | Cc1ccccc1OCCCc1c(C)n[nH]c1C | 1.09 µM
37 | Cc1cc(-c2csc3nc[nH]c(=S)c23)cc(C)c1C | 1.67 µM
38 | CCN(CC)c1ccc(C(=O)OCc2cc(=O)oc3cc(O)ccc23)cc1 | 15.3 µM
39 | CCCn1c(NC(=O)c2ccc(Cl)c(S(=O)(=O)N3CCCC3)c2)nc2ccccc21 | 1.67 µM
40 | CCCCCCCCCCCCCCCC[N+](C)(C)C | 3.02 µM
41 | COC(=O)C1=C(C)NC2=C(C(=O)c3ccccc32)C1c1ccc(-c2ccc(C(=O)O)cc2)o1 (centres undefined) | 2.76 µM
42 | Cc1oc(-c2cc(Cl)cc(Cl)c2)cc1C(=O)NCCc1ccccc1 | 11.7 µM
43 | Cc1nc2ccccc2c(=O)n1/N=C/c1ccc2ccccc2c1O | > 15 µM (inactive)
44 | O=C(N/N=C/c1cc(Cl)cc([N+](=O)[O-])c1O)c1ccccc1NS(=O)(=O)c1cccs1 | 12 µM

Row | Compound | EC50
45 | O=[N+]([O-])c1ccc(O)c(N=Cc2sc3ccccc3c2O)c1 | 2.97 µM
46 | CCC(=O)NC(=S)Nc1ccc(NC(=S)NC(=O)c2ccccc2)cc1 | 0.805 µM
47 | CCOC(=O)Cc1c(C)nc2c(-c3cccc(Br)c3)c[nH]n2c1=O | 3.53 µM
48 | CN(C)S(=O)(=O)c1ccc(C(=O)Nc2nnc(-c3ccc4c(c3)CCCC4)o2)cc1 | 0.144 µM
49 | O=S(=O)(c1ccc(F)cc1)c1nc(-c2ccccc2)oc1N1CCOCC1 | > 15 µM (inactive)
50 | CCCCCNC(=O)c1ccc2c(=O)[nH]c3c(C(=O)NCC4CCCO4)sc(=S)n3c2c1 (centres undefined) | 2.17 µM
51 | C=CCn1c(SCC(=O)/C(C#N)=C(\C)N)nc2sc(C)c(C)c2c1=O | 5.25 µM
52 | Oc1ccccc1N=Cc1c(O)ccc2oc3c(c12)CCCC3 | 5.52 µM
53 | COCCSc1ccccc1C(=O)N1CCCC(C)C1 (centres undefined) | > 15 µM (inactive)
54 | CC1(C)S[C@@H]2[C@H](NC(=O)C(NC(=O)N3CCNC3=O)c3ccccc3)C(=O)N2[C@H]1C(=O)O (some centres undefined) | < 0.06 µM
55 | O=S(=O)(Nc1cccc2cccnc12)c1ccccc1 | 4.39 µM
56 | O=C(Nc1nnc(C2=COCCO2)o1)c1ccc(Br)cc1 | 0.78 µM
57 | COc1ccc(/C=C/c2ccc3cccc(O)c3n2)cc1Br | 0.419 µM
58 | COc1ccc(-c2oc3cccnc3c2C#CC2(O)CCCCC2)cc1 | 7.36 µM
59 | Cc1ccc(C2(c3ccc(C)cc3)CC2C(=O)Nc2ccc([N+](=O)[O-])cc2O)cc1 (centres undefined) | 2.15 µM
60 | O=C(NC(=S)N(Cc1ccccc1)Cc1ccccc1)c1ccccc1F | 0.752 µM
61 | COC(=O)c1c(NC(=O)COc2ccc(Cl)cc2)sc2c1CC(C)(C)NC2(C)C | 12.5 µM
62 | O=C(NNC(=S)NC(=O)c1cn(-c2ccccc2)nc1-c1ccccc1)c1ccncc1 | 0.151 µM
63 | O=[N+]([O-])c1c(Nc2cccc(O)c2)cc(Cl)c2nonc12 | 6.5 µM
64 | Cc1ccc(C(=O)OC2OC(=O)C(Cl)=C2N2CCOCC2)cc1 (centres undefined) | 0.884 µM
65 | Cc1ccc(O)c(NC(=S)NC(=O)c2ccc(-c3ccc(Cl)cc3)o2)c1 | 0.221 µM
66 | CCOC(=O)c1ccc(-c2ccc3c(=O)c4ccccc4n(C)c3c2)cc1F | 4.15 µM

Row | Compound | EC50
67 | COc1ccccc1N=C1NC(=O)/C(=C/c2ccc(N(C)C)cc2)S1 | 6.08 µM
68 | CC(C(=O)NC1C(=O)N2C(C(=O)O)=C(CSc3nnnn3C)CSC12)n1cc(Cl)cn1 (centres undefined) | 0.078 µM
69 | Cc1ccc(OCCn2c(=S)[nH]c3ccccc32)c(C(C)C)c1 | 2.13 µM
70 | CCOc1ccc(/C=N/Nc2cc(N3CCOCC3)nc(C)n2)c(O)c1 | 8.48 µM
71 | CCCc1cc(C(=O)Nc2ccc(C(=O)c3ccc(F)cc3)cc2)n(C)n1 | > 15 µM (inactive)
72 | O=C(Nc1ccc(Cl)c(Cl)c1)Nc1ccon1 | 14.5 µM
73 | Nc1n[nH]c(C2CC2)c1N=Nc1ccc(Cl)c(Cl)c1 | 2.05 µM
74 | c1csc(-c2csc3nc(CN4CCOCC4)nc(NCc4ccc5c(c4)OCO5)c23)c1 | 4.94 µM
75 | S=c1[nH]nc(-c2cc3c(s2)-c2ccccc2CC3)o1 | 3.87 µM
76 | O=C(Nc1cccc(-c2csc(Nc3ccc(Cl)cc3)n2)c1)c1ccccc1 | 4.45 µM
77 | CCc1cc2c(COC(=O)c3cccc(NS(C)(=O)=O)c3)cc(=O)oc2cc1O | 7.84 µM
78 | Fc1ccc(-c2cc(C(F)(F)F)nc(N3CCCCC3)n2)cc1 | 4.68 µM
79 | S=c1[nH]nc(C2CCCCC2)n1/N=C/c1cccc(Cl)c1Cl | 5.59 µM
80 | Cc1ccc(C)c2sc(N3CCN(C(=O)c4ccc([N+](=O)[O-])o4)CC3)nc12 | 5.58 µM
81 | N#Cc1ccc(C(=O)Nc2nc(SCc3ccc(Cl)cc3)n[nH]2)cc1 | 1.52 µM
82 | Cc1ccc(Nc2cc(C)nn2-c2nc(C)cc(C)n2)cc1 | 6.47 µM
83 | CCn1nc(C)cc1-c1nnc(Sc2ncc([N+](=O)[O-])s2)n1C | 6.51 µM
84 | O=C(Nc1cccc(Cl)c1N1CCCCC1)c1ccc2c(c1)OCCO2 | 10.5 µM
85 | CCOc1ccc(C(=O)NC(=S)N(Cc2ccccc2)Cc2ccccc2)cc1 | 1.39 µM
86 | CCc1ccc(S(=O)(=O)/N=C2\C=C(Nc3cccc(C(=O)O)c3)C(=O)c3ccccc32)cc1 | 1.71 µM
87 | Cc1cc(C)c(C(=O)CC(=O)c2ccccc2Cl)c(O)c1 | 6.76 µM
88 | CC(C)Cn1c(O)c(N=NC(=O)c2cccc(S(=O)(=O)N3CCCCC3)c2)c2ccccc21 | 6.04 µM

Row | Compound | EC50
89 | CCCCCCCCCCCCCCCC[N+](C)(C)CC | 2.19 µM
90 | CCOc1ccc2c(c1)C(=NNC(=O)c1ccncc1)c1cc(OCC)ccc1-2 | 1.57 µM
91 | Cc1cc(C)c2nc(-c3ccncc3)cc(C(=O)N3CCN(Cc4ccccc4Cl)CC3)c2c1 | 4.72 µM
92 | Cc1nn(-c2ccccc2)c(C)c1/C=N/NC(=O)c1cc(-c2ccc(Cl)s2)[nH]n1 | 5.8 µM
93 | Cc1c(C(=O)Nc2nc3ccccc3[nH]2)oc2c(Cl)cccc12 | 0.727 µM
94 | CN1c2ccsc2/C(=N/Nc2ccccc2)CS1(=O)=O | 2.21 µM
95 | Cc1ccc(N(C)S(=O)(=O)c2cccc(C(=O)Nc3nc4ccccc4[nH]3)c2)cc1 | 1 µM
96 | Cc1nn2c(NCc3ccccn3)cc(C(C)(C)C)nc2c1-c1ccccc1 | 1.54 µM
97 | O=[N+]([O-])/C=C/c1ccc2c(ccn2Cc2ccccc2)c1 | 3.04 µM
98 | Cc1ccc(NC(=O)CN2C(=O)S/C(=C/c3ccc(-c4cc(C(=O)O)ccc4C)o3)C2=O)cc1C | 2.11 µM
99 | Cc1ccc(-c2csc(-c3c[nH]c4ccccc34)n2)c(C)c1 | 6.03 µM
100 | C[C@H]1[C@H](C)CC[C@]2(C(=O)O)CC[C@]3(C)C(=CC[C@@H]4[C@@]5(C)C[C@@H](O)[C@H](O)C(C)(C)[C@@H]5CC[C@]43C)[C@H]12 | 2.81 µM
101 | COc1ccc(NC(=O)CN(C)C(=O)/C=C/c2cn(-c3ccccc3)nc2-c2ccc(F)cc2)cc1 | 8.39 µM
102 | CCn1c(=O)c(C(=O)NNC(=O)c2ccc(Cl)cc2Cl)c(O)c2ccccc21 | 1.99 µM
103 | CCCC(=O)NC(c1ccc(Cl)cc1Cl)c1ccc2cccnc2c1O (centres undefined) | 0.912 µM
104 | Clc1ccc(-c2nnnn2-c2ccc(Cl)c(Cl)c2)cc1Cl | 8.09 µM
105 | CC(=O)OCC1=C(C(=O)O)N2C(=O)C(NC(=O)C(C)Cn3cc(Cl)cn3)C2SC1 (centres undefined) | 1.96 µM
106 | O=C(/C=C/c1ccccc1)NCCc1ccccc1 | > 15 µM (inactive)
107 | CCCCC(CC)C(=O)Oc1ccc(O)c(C(C)(C)C)c1 (centres undefined) | 2.89 µM
108 | COc1ccc(-n2nc(C(=O)c3cccs3)cc(-c3nc4ccccc4[nH]3)c2=N)cc1 | 1.2 µM
109 | O=C(CNC(=O)c1ccc(F)cc1)N/N=C/c1cc(Br)ccc1OCc1ccccc1 | 12.2 µM
